{"source": "patent US11712466B2", "about": "“Vaccine composition” (TOHOKU UNIVERSITY, priority 2017, dated 2023)", "key": {"[1]": {"tested_on": "Lewis lung cancer cells (LLC)", "assay": "Subcutaneous implant model, tumor growth inhibitory effect (LLC)", "assay_type": "in vivo, mouse", "conditions": "immunized C57BL/6J mice, cells implanted s.c. on day 29, measured 14 days after implantation", "method": "(§1) After 2 weeks from the administration of each peptide vaccine and incomplete Freund's adjuvant in Example 1 (on day 29 after the initial peptide vaccine administration), mouse-derived tumor cells were implanted in an immunized mouse, whereby a subcutaneous implant model was prepared. Specifically, mouse lung cancer cells (Lewis lung cancer cells (LLC)) or mouse melanoma cells (B16F1) (all have C57BL/6J as a genetic background) cultured in a RPMI+10% FBS medium were collected by centrifugation, and a cell suspension (1.0×10^8 cells/mL) was prepared with a serum-free medium, and 0.1 mL (1.0×10^7 cells/animal) of the cell suspension was implanted in a right axillary subcutaneous region of a mouse using a 27G injection needle and a syringe, whereby a subcutaneous implant model of tumor cells was prepared."}, "[2]": {"tested_on": "antigen peptide (peptide-conjugated BSA)", "assay": "Antibody titer in blood of immunized mice by ELISA against antigen peptide", "assay_type": "in vivo, mouse", "conditions": "Example 1: C57BL/6J mice, KLH-antigen complex s.c., Freund's adjuvant, serum 2 weeks after booster (total 4 weeks)", "excerpt": "(§2) C57BL/6J male mice aged 8 weeks were purchased from Charles River Laboratories Japan, Inc. After the delivery, the mice were reared in an environment where the room temperature and the light and dark cycles were maintained, and were provided with feed and water ad libitum. As a candidate sequence leading to activation of helper T cells by MHC class II, two peptide sequences: MTGSAADTHR (SEQ ID NO: 4; hereinafter, a peptide composed of the amino acid sequence is referred to as “MTG peptide”) and RRRQASPPRR (SEQ ID NO: 5; hereinafter, a peptide composed of the amino acid sequence is referred to as “RRR peptide”), each of which is not common to VASH1 in the VASH2 sequence were selected (FIG. 1). With respect to these peptides, peptide vaccines using KLH as a carrier were constructed. Note that for the conjugation of each peptide with KLH, a glutaraldehyde method was used. When the amount of the peptide introduced into KLH was measured for each of the obtained peptide vaccines, the amount of MTG was 66 to 70 nmol/mg of the conjugate, and the amount of RRR was 62 to 76 nmol/mg of the conjugate. Subsequently, 5 μg of KLH (control) and 20 μg of each of the KLH-antigen complexes were prepared with physiological saline so that the total amount was 50 μL, respectively, whereby KLH-mixed solutions were obtained. To each of the KLH-mixed solutions (50 μL), an equal amount of complete Freund's adjuvant was added. The obtained mixture was subcutaneously administered to the mice, whereby initial immunization was carried out. After 2 weeks from the administration, booster immunization was carried out by subcutaneously administering a mixture of each of the KLH-mixed solutions (50 μL) and an equal amount of incomplete Freund's adjuvant to the mice. Further, after 2 weeks from the booster immunization (after a total of 4 weeks), an increase in the antibody titer in the blood of each of the immunized mice was verified by ELISA.\nThe measurement of the antibody titer by ELISA was carried out as follows. After 2 weeks from the booster immunization (after a total of 4 weeks), the blood was collected from the facial vein of each of the immunized mice, and the serum separated from the blood was subjected to ELISA. By using 50 mM carbonate buffer, peptide-conjugated BSA was prepared at 10 μg/mL, and further a recombinant VASH2 protein was prepared at 1 μg/mL, each of which was added at 50 μL/well, and the resultant was left to stand overnight at 4° C. After the solution in each well was removed, 5% skim milk was added at 150 μL/well. […] After 30 minutes, the reaction was stopped by adding 0.5 N H2SO4 at 50 μL/well, and an absorbance (450 nm) was measured using a microplate reader."}, "[3]": {"tested_on": "mouse melanoma cells (B16F1)", "assay": "Subcutaneous implant model, tumor growth inhibitory effect (B16F1)", "assay_type": "in vivo", "conditions": "immunized C57BL/6J mice, cells implanted s.c. on day 29, measured 14 days after implantation", "method": "as §1"}, "[4]": {"tested_on": "recombinant human VASH2 protein", "assay": "Antibody titer in blood of immunized mice by ELISA against recombinant VASH2 protein", "assay_type": "in vivo, mouse", "conditions": "Example 1: C57BL/6J mice, KLH-antigen complex s.c., Freund's adjuvant, serum 2 weeks after booster (total 4 weeks)", "excerpt": "as §2\nThe measurement of the antibody titer by ELISA was carried out as follows. After 2 weeks from the booster immunization (after a total of 4 weeks), the blood was collected from the facial vein of each of the immunized mice, and the serum separated from the blood was subjected to ELISA. By using 50 mM carbonate buffer, peptide-conjugated BSA was prepared at 10 μg/mL, and further a recombinant VASH2 protein was prepared at 1 μg/mL, each of which was added at 50 μL/well, and the resultant was left to stand overnight at 4° C. After the solution in each well was removed, 5% skim milk was added at 150 μL/well. After the resultant was left to stand at room temperature for 2 hours, the solution was removed, and subsequently, a serum sample diluted by 20 to 62500 times with 5% skim milk was added at 50 μL/well, and the resultant was left to stand overnight at 4° C. Subsequently, washing was carried out with PBS (200 μL/well×6 times), and thereafter, a secondary antibody (HRP-conjugated anti-Mouse IgG) diluted by 1000 times with 5% skim milk was added at 50 μL/well. After the resultant was left to stand at room temperature for 3 hours, washing was carried out with PBS (200 μL/well×3 times). Thereafter, tetramethylbenzidine (TMB) was added at 50 μL/well, and the resultant was left to stand at room temperature under light shielding. After 30 minutes, the reaction was stopped by adding 0.5 N H2SO4 at 50 μL/well, and an absorbance (450 nm) was measured using a microplate reader."}}, "note": "Ends that are not written are not given here."}
{"substance": "RRR peptide vaccine: RRR peptide RRRQASPPRR (SEQ ID NO: 5) conjugated with KLH as carrier by a glutaraldehyde method (also: conjugated with KLH by glutaraldehyde)", "values": [{"measurement": "tumor size (tumorigenesis), Lewis lung cancer cells", "setting": "[1]", "value": "could not inhibit tumorigenesis"}, {"measurement": "antibody titer against the antigen peptide", "setting": "[2]", "value": "significant concentration-dependent increase"}, {"measurement": "tumor size (tumorigenesis), B16F1 melanoma cells", "setting": "[3]", "value": "could not inhibit tumorigenesis"}, {"measurement": "antibody titer against the recombinant human VASH2 protein", "setting": "[4]", "value": "a significant increase in the antibody titer was not confirmed"}]}
